The structures appear in SMILES notation.

Our source for the melting point values is a melting point compilation (Tetko et al.; mined from patent text by program, amines drawn as free bases though some values may be those of a salt).

In turn, `CON1CCC(CC2NC(=O)C(c3cc(C)ccc3C)=C2O)CC1` (stereo not given) came in with a melting point of 116 to 119 °C.

Molecule `CCOc1ccccc1N1CCN(CCC2OCCc3cc(C(N)=O)ccc32)CC1` (stereo not given) yielded a melting point of 208 to 210 °C.

`COC(=O)C1(CC(N)=O)C(=O)N(Cc2ccc(Br)cc2F)C(=O)c2ccccc21` (stereo not given) had a melting point of 180 to 182 °C.

Molecule `COc1ccc(C2=NN(c3ccc(-c4nnn(Cc5ccccc5)n4)cc3)C(=O)[C@H]3CC=CC[C@@H]23)cc1OC` (relative stereo) gave a melting point of 100 to 102 °C.

Molecule `Cc1ccc(S(=O)(=O)OCC2COc3ccc4[nH]c(=O)[nH]c4c3O2)cc1` (stereo not given) gave a melting point of 202 to 204 °C.

As for `CCOC(=O)c1cc(-n2c(=O)cc(C)n(C)c2=O)ccc1Cl`, the melting point fell in the range of 120 to 122 °C.

For the molecule `COc1ccc(NS(C)(=O)=O)nc1`, the melting point was in the range of 156 to 158 °C.

`CCOC(=O)c1ccc(-c2ncc(Cl)nc2Cl)cc1` displayed a melting point of 88.5 to 90 °C.

Take `CCSC=C1C(=O)OC(C)(C)OC1=O`: the melting point lay within 52 to 54 °C.

`NS(=O)(=O)c1ccc(-c2cccc(-c3nc(-c4ccc(F)c(F)c4)cc(C(F)(F)F)n3)c2)s1` gave a melting point of 238 °C.

For `ClC1(NC2(Cc3ccncc3)NN=Cc3ccncc32)C=CC=CC1` (stereo not given), the melting point was in the range of 220 to 221 °C.

In the case of `Cc1cc(-c2nc3ccccc3c(=O)n2-c2ccc(Cl)cc2)cc(C)c1OCCO`, the melting point fell in the range of 101 to 103 °C.

For `CCOC(=O)c1cc2oc3c(n2n1)CCOC3`, the melting point lay in the range of 116 to 118 °C.

`O=C1CCC(=O)C1C(=O)CCc1ccc(Cl)c(Cl)c1` showed a melting point of 126 to 127 °C.

`CC(C#CC1CC(Oc2ccc(F)cc2Cl)C1)N(O)C(N)=O` (single isomer, unassigned; (+)) registered a melting point of 160 °C.

As for `O=C(C#Cc1ccc(Cl)cc1)Nc1ccc2c(ccn2CCN2CCCC2)c1`, the melting point fell in the range of 127 to 129 °C.

`COc1ccc2c(c1OC)C=NCN2CCC(=O)O` came in with a melting point of 226 to 228 °C.

The molecule `COc1ccc2cc([C@H](C)C(=O)NOCC(=O)N3CCC(CO[N+](=O)[O-])CC3)ccc2c1` returned a melting point of 45 to 47 °C.

For `CC1CC(C(=O)O)NC1=O` (stereo not given), the melting point is 169 to 170 °C.

In the case of `CC(=O)NC1(c2ccccc2)CCN(CCC(CN2C(=O)c3ccccc3C2=O)c2ccc(Cl)c(Cl)c2)CC1` (stereo not given), the melting point lay in the range of 83 to 85 °C.

As for `NCC(=O)N(N)c1ccc2ccccc2c1`, the melting point fell in the range of 147 to 148 °C.

Consider `Cc1cccc(Oc2c[nH]c(=S)[nH]c2=O)c1`, for which the melting point came out at 210 °C.

Consider `O=C(O)c1cc(Cl)c(F)c(Cl)c1F`, for which the melting point is 179 °C.

With `Cc1c2ccc(-c3nn(C(C)c4oc5ccccc5c(=O)c4-c4cccc(F)c4)c4ncnc(N)c34)cc2nn1C` (stereo not given), the melting point fell in the range of 269 to 274 °C.

In turn, `O=C1C(=C(O)Cc2ccccc2)SC(=S)N1c1ccccc1` gave a melting point of 146 to 148 °C.

With `O=C1NCC(CN2CCCCC2)c2c[nH]c3cccc1c23` (stereo not given), the melting point was in the range of 119 to 122 °C.

Molecule `OC(/C=C/c1cc(C(F)(F)F)ccc1Cl)(CF)CF` displayed a melting point of 61 to 62 °C.

Take `NC(=S)CCn1nc(-c2ccccc2)ccc1=O`: the melting point fell in the range of 173 to 175 °C.

`CCC(C(C)=CC(CNC(=O)Cc1cccnc1)=NO)[N+](=O)[O-]` (stereo not given) yielded a melting point of 140 to 141 °C.

In turn, `O=S1(=O)N(CCCN2CC=C(c3ccccc3)CC2)c2cccc3c2N1CCC3` had a melting point of 120 °C.

`CC(=O)Nc1nc(CCc2ccc(NC(=N)N)cc2)c(Cc2cccc(S(C)(=O)=O)c2)s1` gave a melting point of 212 to 214 °C.

For the molecule `CCOC(=O)C(=[N+]=[N-])C(=O)c1cc(I)cnc1Cl`, the melting point was in the range of 84 to 85 °C.

Molecule `CN1CCCC1=NC(=O)Nc1cccc(C#N)c1` came in with a melting point of 145 to 147 °C.

`CNc1nc(Nc2ccc(S(C)(=O)=O)cc2)ncc1[N+](=O)[O-]` registered a melting point of 323 °C.

In the case of `Cc1cc2[nH]c(=O)c3cnccc3n2n1`, the melting point was > 300 °C.

As to `O=C1C(Cc2ccccc2)NC(=S)N1c1ccccc1` (stereo not given), the melting point lay within 187 to 189 °C.

`Oc1ccc2c(c1)C=C(n1ccnc1)CC2` displayed a melting point of 218 to 220 °C.

The molecule `Cc1nccn1-c1nc(-c2ccc(Cl)cc2)c(CCC(N)=O)o1` had a melting point of 215 to 216 °C.

`CC(C)n1nc(-c2sc(C(=O)N3CCN(C)CC3)nc2-c2ccccc2)ccc1=O` had a melting point of 155 to 156 °C.

Take `O=C(Nc1ccc(C(=O)Nc2ccc(Cl)cc2)c(O)c1)c1ccc(-c2nc3cc(Cl)c(Cl)cc3[nH]2)cc1`: the melting point was > 220 °C.

`O=C1CC(C(O)(c2ccc(F)cc2)c2ccc(F)cc2)CN1Cc1ccccc1` (stereo not given) registered a melting point of 158 to 160 °C.

Take `O=S(=O)(Nc1nccs1)c1ccc(Nc2nc(OCC3CCCCC3)c3nc[nH]c3n2)cc1`: the melting point was in the range of 152 to 154 °C.

The molecule `CCOc1cc(C)cc2cc(C#N)c(=O)oc12` gave a melting point of 173 °C.

The molecule `Fc1ccc(-c2[nH]cc(C3=CC4CCC(C3)N4)c2-c2ccncc2)cc1` (stereo not given) registered a melting point of 212 to 213 °C.

Turning to `CC(C)(/C=C\F)C(=O)Nc1ccc(Br)cc1`, the melting point fell in the range of 87 to 90 °C.

`CCCCc1nc2ccccn2c(=O)c1-c1ccc(N2CCN(C(=O)OC(C)(C)C)CC2)nc1` showed a melting point of 126 to 128 °C.

With `CCCCc1c(-c2cccnn2)ssc1=S`, the melting point is 94 °C.

In turn, `O=C(Nc1ccc(O)cc1)OCC(Cl)(Cl)Cl` returned a melting point of 134 °C.

Consider `Cc1cc2c(c(C(C)(C)C)c1)OCC(/C=C/C=C/C=C/C(=O)O)=C2`, for which the melting point lay within 256 to 258 °C.

For the molecule `CSCc1c(N)c(C#N)cc(F)c1F`, the melting point was 109 to 110 °C.

`CCN(CC)c1ccc(N(Cc2ccc(N)c(OC)c2)C(N)=O)c(C)c1` registered a melting point of 110 to 115 °C.

`O=C(Cl)Cc1ccc(-c2ccc(F)cc2F)c(F)c1` showed a melting point of 70 to 73 °C.

As for `CCNC(C)CCNC(CC(=O)O)C(=O)OC1CCCCC1` (stereo not given), the melting point was 124 to 128 °C.

As for `COc1ccccc1-n1c(-c2cc(-c3ccc(Cl)cc3)c(N3CCOCC3)s2)nc2ccccc2c1=O`, the melting point was in the range of 216 to 217 °C.

With `NCC1C[N+]([O-])=C(c2ccccc2F)c2cc(Cl)ccc2N1` (stereo not given), the melting point lay in the range of 144 to 148 °C.

On to `COc1cc(-c2ccccc2C(F)(F)F)c(Cl)cc1C(=O)N1Cc2cccn2Cc2ccccc21`, for which the melting point is 208 to 210 °C.

Take `CC1(O)CC(=O)OC(CCCc2ccc(OCc3ccccc3)cc2)C1Br` (stereo not given): the melting point fell in the range of 100 to 101 °C.

The molecule `O=C(O)CN(CCc1ccccc1)C(=O)CCc1nc2c(F)c(F)cc(F)c2s1` registered a melting point of 139 to 140 °C.

Molecule `CCc1nc2c(N)nc3ccccc3c2n1CCCC#Cc1ccccc1` returned a melting point of 199 to 202 °C.

Take `Oc1ccc(-c2ccc(O)cc2C#Cc2ccccc2)c(C#Cc2ccccc2)c1`: the melting point was 187 °C.

Molecule `O=c1[nH]c2cc3c(cc2nc1-c1ccccc1)OC(F)(F)O3` displayed a melting point of 291 to 292 °C.

Turning to `CCOC(=O)c1cccc(Nc2nc3ccccc3o2)c1`, the melting point lay in the range of 168 to 170 °C.

On to `COc1ccc(C(=O)N[C@H]2CCN(C)C[C@H]2c2ccccc2)cc1` (relative stereo), for which the melting point was 165 to 166 °C.

`O=c1cc(-c2nnn[nH]2)oc2c(/C=C/c3ccc(OCCCCc4ccc(F)cc4)cc3)cccc12` displayed a melting point of 174 to 175 °C.

`O=c1cc(-c2ccncc2)nc2n1CCCN2CCCc1c[nH]c2ccccc12` yielded a melting point of 230 to 232 °C.

`Cn1nc(-c2ccccc2)cc1Cl`: the melting point lay in the range of 61 to 62 °C.

Regarding `CC(C)(C)N1CC=C(c2c[nH]c(-c3ccc(F)cc3)c2-c2ccncc2)CC1`, the melting point was 242 to 244 °C.

As for `CSc1ccc(-c2c(Br)cnn2-c2ccc(F)cc2)cc1`, the melting point was 85 to 87 °C.

Molecule `CC(C)[Si](C(C)C)(C(C)C)N1C=C2C=C(Br)OCC3=C2C(=C1)CC3N(C)C` (stereo not given) came in with a melting point of 119 to 121 °C.

In turn, `CCOC(=O)c1ccc(-c2cccc(-c3ccc4c(c3)C(C)(C)CCC4(C)C)c2OCOC)cc1` registered a melting point of 75 °C.

Turning to `O=C(N[C@H]1CCN(CCc2ccc(F)cc2)C1)C1=c2ccccc2=CC=C2CC=CC=C21`, the melting point was in the range of 127 to 128 °C.

In turn, `O=C(CCc1ccc([N+](=O)[O-])cc1)NCCO` returned a melting point of 122 to 125 °C.

Molecule `CCN(CC)C(=O)c1cc(-c2ccccc2)c(=O)[nH]c1-c1c(Cl)cccc1C#N` gave a melting point of 237 to 240 °C.

For the molecule `Cc1cc2c(c(C)c1Br)C(=O)C(C)(C)O2`, the melting point was 63 to 64 °C.

`CC1CCC(=NNc2ccccc2)c2ncc(C(=O)O)c(=O)n21` (single isomer, unassigned; (-)): the melting point lay within 255 to 256 °C.

In the case of `Cc1c(-c2cnc(N(C)C)nc2)ssc1=S`, the melting point worked out at 135 °C.

The molecule `COc1cc(I)cc(OC)c1` came in with a melting point of 73 to 74 °C.

In turn, `Nc1nnc(-c2ccc3ncn(-c4ccc(OC(F)(F)F)c(Cl)c4)c3c2)o1` returned a melting point of 238 to 239 °C.

In turn, `COc1cc2cc(C(=O)OC(C)(C)C)c(N)cc2cc1O` came in with a melting point of 262 to 263 °C.

`CC(C)N(C(=O)CCCCCC(=O)O)c1ccccc1` registered a melting point of 62 to 63 °C.

For `N#Cc1cc([N+](=O)[O-])cc(C#N)c1N`, the melting point is 160 to 163 °C.

`N#CCCCC(=O)c1cc2ccccc2o1` showed a melting point of 79 °C.

In the case of `O=[N+]([O-])c1ccc(-c2cccs2)cc1`, the melting point lay within 124 to 126 °C.

For the molecule `OC(CNCCN(c1ccccc1)c1ccccc1)COc1ccccc1` (stereo not given), the melting point was 95 to 96 °C.

In turn, `CCC1SC=C(C)NC1=O` (stereo not given) displayed a melting point of 69 to 71 °C.

Molecule `N#Cc1c(N)cccc1Oc1ccccc1` returned a melting point of 66 to 67 °C.

In turn, `COC(=O)CCc1ccc(C(=C2CC(C)(C)CC(C)(C)C2)c2ccc(O)cc2)cc1` came in with a melting point of 129 to 130 °C.

As for `COC(=O)C(Cc1ccc(OCCN(C)c2nc3ccccc3o2)cc1)OCC(=O)O` (stereo not given), the melting point lay within 154 to 155 °C.

`CC(=O)N(O)C(CS(=O)(=O)c1ccc(-c2cccc(CNC(=O)c3nc4ccccc4c(=O)[nH]3)c2)cc1)C(C)C` (stereo not given) gave a melting point of 167 to 169 °C.

Take `CC(C)C[C@H](NS(=O)(=O)c1ccc(N(C)C)cc1)C(=O)N[C@H](C#N)CCc1ccccc1`: the melting point fell in the range of 46 to 48 °C.

By melting point is commonly meant the temperature of the solid-liquid transition.
